# Tested on: Staphylococcus aureus strain UAMS-1
# Experiment: Antimicrobial susceptibility testing (MIC, broth microdilution)
# Assay type: cell-based
# Details: Staphylococcus aureus, UAMS1, 18 h, S. aureus UAMS-1, Mueller Hinton broth, 37° C., read-out: MIC
# Experimental: The RNase P inhibitors described herein were tested for antimicrobial activity toward Staphylococcus aureus strain UAMS-1. Individual wells of a 96-well microtiter plate were inoculated with ˜1×10^5 colony-forming units (CFU) of the indicated organism, containing two-fold increasing concentrations (from 0 to 256 μg mL^−1) of the indicated antibiotic or putative RnpA inhibitor, and incubated at 37° C. for 18 hours in Mueller Hinton broth. The MIC was defined as the lowest concentration of antibiotic in which there was no visible bacterial growth in the wells. Minimum bactericidal concentration testing was performed by enumerating the bacterial cells in each of the wells containing treatments at and above the MIC.
row,Structure (SMILES),MIC
1,CC(C)c1ccc(OCC(=O)NNC(=S)NC(=O)c2cc3ccccc3o2)cc1 [MC-190031],32 µg/mL
2,CC(C)c1ccc(OCC(=O)NNC(=S)NC(=O)/C=C/c2cc3ccccc3o2)cc1 [MC-190047],64 µg/mL
3,CCCOc1ccc(C(=O)NNC(=S)NC(=O)c2ccco2)cc1 [ST5684191],8 µg/mL
4,CCOc1ccc(C(=O)NC(=S)NNC(=O)COc2cc(C)ccc2C(C)C)cc1 [ST5528173],32 µg/mL
5,CC(C)c1ccccc1OCC(=O)NNC(=S)NC(=O)/C=C/c1cccs1 [ST5523210],32 µg/mL
6,CC(C)c1ccc(OCC(=O)NNC(=S)NC(=O)c2cccnc2)cc1 [MC-190049],64 µg/mL
7,CC(Oc1ccc2ccccc2c1)C(=O)NNC(=S)NC(=O)c1ccco1 (centres unmarked) [ST5682782],> 128 µg/mL
8,COc1ccccc1C(=O)NC(=S)NNC(=O)COc1ccc(C(C)C)cc1 [MC-190033],128 µg/mL
9,CC(C)c1ccc(OCC(=O)NNC(=S)NC(=O)c2cc3ccccc3s2)cc1 [MC-220001],> 256 µg/mL
10,CC(C)(C)c1ccc(OCC(=O)NNC(=S)NC(=O)c2ccco2)c(Br)c1 [ST5524527],8 µg/mL
11,Cc1ccoc1C(=O)NNC(=O)COc1ccc(C(C)C)cc1 [MC-190040],> 256 µg/mL
12,CC(C)c1ccc(OCC(=O)NNC(=S)NC(=O)/C=C/c2ccco2)cc1 [MC-190045],64 µg/mL
13,CC(C)c1ccc(OCC(=O)NNC(=S)NC(=O)c2c[nH]c3ccccc23)cc1 [MC-190055],32 µg/mL
14,CCCOc1ccccc1C(=O)NNC(=S)NC(=O)c1ccco1 [ST5528488],4 µg/mL

# Molecular target: T1, RnpA (Staphylococcus aureus, UniProt P0A0H5)
# T1 sequence (P0A0H5 1-117): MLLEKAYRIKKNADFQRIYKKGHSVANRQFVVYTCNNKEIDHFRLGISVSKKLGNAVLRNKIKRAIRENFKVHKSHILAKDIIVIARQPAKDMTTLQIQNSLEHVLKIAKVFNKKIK
# Experiment: RnpA mRNA degradation activity assay
# Assay type: biochemical
# Details: not given
# Experimental: The RNase P inhibitors described herein were tested for activity toward RnpA mRNA degradation activity. Either 1 μg of total S. aureus RNA or 1 pmol of in vitro synthesized spa mRNA was incubated with 20 pmol RnpA at 37° C. for 15 to 30 min in a reaction buffer (50 mM Tris-HCl pH 8.0, 2 mM NaCl, 2 mM MgCl2) in the absence or presence of the indicated compound. Reactions were stopped by adding an equal volume of 2×RNA loading dye (95% formamide, 0.025% SDS, 0.025% bromophenol blue, 0.025% xylene cyanol FF, 0.5 mM EDTA), run on a denaturing 1.0% agarose-0.66 M formaldehyde gel and stained with ethidium bromide. RNA substrates and corresponding degradation products were visualized using a FluorChem 5500 system (Alpha Innotech; San Leandro, Calif.). The inhibitory effects of the test compounds were measured using Image J densitometry software (National Institutes of Health; Bethesda, Md.) to quantify the signal intensity of the RNA band(s) in the negative control (RNA alone), positive control (RnpA+RNA+DMSO), and experimental samples (RnpA+RNA+test compound). The percent enzyme inhibition of test compounds was calculated using the following equation: Percent inhibition=[(experimental signal-positive control)/(negative control signal-positive control signal)]*100.
row,Structure (SMILES),IC50
1,CC(C)c1ccc(OCC(=O)NNC(=S)NC(=O)c2cccnc2)cc1 [MC-190049],> 500 µM

# Same assay, conditions: RnpA mRNA degradation, gel densitometry; read-out: RnpA IC50
row,Structure (SMILES),IC50
1,CC(C)c1ccc(OCC(=O)NNC(=S)NC(=O)c2cc3ccccc3o2)cc1 [MC-190031],60 µM
2,CC(C)c1ccc(OCC(=O)NNC(=S)NC(=O)/C=C/c2cc3ccccc3o2)cc1 [MC-190047],30 µM
3,CCCOc1ccc(C(=O)NNC(=S)NC(=O)c2ccco2)cc1 [ST5684191],> 500 µM
4,CCOc1ccc(C(=O)NC(=S)NNC(=O)COc2cc(C)ccc2C(C)C)cc1 [ST5528173],> 500 µM
5,CC(C)c1ccccc1OCC(=O)NNC(=S)NC(=O)/C=C/c1cccs1 [ST5523210],45 µM
6,CC(Oc1ccc2ccccc2c1)C(=O)NNC(=S)NC(=O)c1ccco1 (centres unmarked) [ST5682782],> 500 µM
7,COc1ccccc1C(=O)NC(=S)NNC(=O)COc1ccc(C(C)C)cc1 [MC-190033],250 µM
8,CC(C)c1ccc(OCC(=O)NNC(=S)NC(=O)c2cc3ccccc3s2)cc1 [MC-220001],50 µM
9,CC(C)(C)c1ccc(OCC(=O)NNC(=S)NC(=O)c2ccco2)c(Br)c1 [ST5524527],> 500 µM
10,Cc1ccoc1C(=O)NNC(=O)COc1ccc(C(C)C)cc1 [MC-190040],480 µM
11,CC(C)c1ccc(OCC(=O)NNC(=S)NC(=O)/C=C/c2ccco2)cc1 [MC-190045],100 µM
12,CC(C)c1ccc(OCC(=O)NNC(=S)NC(=O)c2c[nH]c3ccccc23)cc1 [MC-190055],40 µM
13,CCCOc1ccccc1C(=O)NNC(=S)NC(=O)c1ccco1 [ST5528488],430 µM

# Molecular target: T2, S. aureus RNase P (RnpA+rnpB) (Staphylococcus aureus, UniProt P0A0H5)
# T2 sequence (P0A0H5 1-117): T1 sequence (P0A0H5 1-117)
# Experiment: RNase P activity assay (precursor tRNA processing)
# Assay type: biochemical
# Details: ptRNATyr processing, gel densitometry; read-out: RNase P IC50
# Experimental: The RNase P inhibitors described herein were tested for activity toward RNase P. S. aureus RNase P activity assays were performed in low salt buffer (50 mM Tris-HCl pH 8.0, 5 mM MgCl2) or in high salt buffer (50 mM Tris-HCl pH 8.0, 100 mM MgCl2, 800 mM NH4Cl). For all reactions, ptRNATyr, tRNATyr, or rnpB RNA species were first denatured by heating to 95° C. for 3 minutes, and then slowly cooling the mixtures to room temperature. RNase P was reconstituted by mixing an equal molar ratio of RnpB and RnpA for 15 min at 37° C. Precursor tRNA processing reactions (20 μL) were performed by mixing 1.25 pmol RNase P (RnpA+rnpB), RnpA, or rnpB with an equal volume of 2× low salt buffer or 2× high salt buffer and 10 pmol ptRNATyr. Mixtures were incubated for 15 min at 37° C. Reactions were stopped by adding 20 μL 2×RNA loading dye (95% formamide, 0.025% SDS, 0.025% bromophenol blue, 0.025% xylene cyanol FF, 0.5 mM EDTA), and 30 μL of each sample was electrophoresed in a 7 M urea/8% polyacrylamide gel and was then stained with ethidium bromide (0.5 μg/ml). Where indicated, reactions were repeated in the presence of the indicated amount of putative RnpA inhibitors or dimethyl sulfoxide (DMSO). A FluorChem 5500 imaging system was used to visualize the RNA, and the relative abundance of the mature tRNATyr band in the positive control (RNase P+DMSO) or in samples containing test compounds was measured using Image J densitometry software (NIH). The percent RNase P activity was then calculated using the following calculation: (test compound tRNATyr signal/positive control tRNATyr signal)*100.
row,Structure (SMILES),IC50
1,CC(C)c1ccc(OCC(=O)NNC(=S)NC(=O)c2cc3ccccc3o2)cc1 [MC-190031],1 µM
2,CC(C)c1ccc(OCC(=O)NNC(=S)NC(=O)/C=C/c2cc3ccccc3o2)cc1 [MC-190047],26 µM
3,CCCOc1ccc(C(=O)NNC(=S)NC(=O)c2ccco2)cc1 [ST5684191],> 500 µM
4,CCOc1ccc(C(=O)NC(=S)NNC(=O)COc2cc(C)ccc2C(C)C)cc1 [ST5528173],230 µM
5,CC(C)c1ccccc1OCC(=O)NNC(=S)NC(=O)/C=C/c1cccs1 [ST5523210],110 µM
6,CC(C)c1ccc(OCC(=O)NNC(=S)NC(=O)c2cccnc2)cc1 [MC-190049],160 µM
7,CC(Oc1ccc2ccccc2c1)C(=O)NNC(=S)NC(=O)c1ccco1 (centres unmarked) [ST5682782],> 500 µM
8,COc1ccccc1C(=O)NC(=S)NNC(=O)COc1ccc(C(C)C)cc1 [MC-190033],> 500 µM
9,CC(C)c1ccc(OCC(=O)NNC(=S)NC(=O)c2cc3ccccc3s2)cc1 [MC-220001],100 µM
10,CC(C)(C)c1ccc(OCC(=O)NNC(=S)NC(=O)c2ccco2)c(Br)c1 [ST5524527],200 µM
11,Cc1ccoc1C(=O)NNC(=O)COc1ccc(C(C)C)cc1 [MC-190040],230 µM
12,CC(C)c1ccc(OCC(=O)NNC(=S)NC(=O)/C=C/c2ccco2)cc1 [MC-190045],32 µM
13,CC(C)c1ccc(OCC(=O)NNC(=S)NC(=O)c2c[nH]c3ccccc23)cc1 [MC-190055],90 µM
14,CCCOc1ccccc1C(=O)NNC(=S)NC(=O)c1ccco1 [ST5528488],95 µM

# Tested on: S. aureus strain UAMS-1
# Experiment: Fractional Inhibitory Concentration testing with mupirocin
# Assay type: cell-based
# Details: combined with mupirocin, S. aureus UAMS-1, Mueller Hinton broth, 18 hours; synergistic FIC≤0.5
# Experimental: The RNase P inhibitors described herein were tested for Fractional Inhibitory Concentration (FIC) in the presence of mupirocin. FIC testing was performed to determine the combined effects of mupirocin and the RnpA inhibitors as described herein. Individual wells of a 96-well microtiter plate were inoculated with 1×10^5 CFU of S. aureus strain UAMS-1 in a Mueller Hinton broth. Each row of the plate contained increasing concentrations of RNPA1000 or RNPA2000 (two-fold increments; 0, 0.004, 0.008, 0.016, 0.03, 0.06, 0.125, 0.25, 0.5, 1, 2, or 4×MIC), whereas each column contained increasing concentrations of the indicated antibiotic (two-fold increments; 0, 0.06, 0.125, 0.25, 0.5, 1, 2, or 4×MIC). Plates were incubated for 18 hours at 37° C., and growth was detected by the unaided eye. The FIC was determined using the following formula: (MIC of Drug A in Combination/MIC of Drug A Alone)+(MIC of Drug B in Combination/MIC of Drug B Alone)=FIC. A synergistic interaction was defined as an FIC value≤0.5, no interaction as an FIC of 0.5-4, or an antagonistic interaction FIC>4.
row,Structure (SMILES),FIC with Mupirocin
1,CC(C)c1ccc(OCC(=O)NNC(=S)NC(=O)c2cc3ccccc3o2)cc1 [MC-190031],0.25
2,CC(C)c1ccc(OCC(=O)NNC(=S)NC(=O)/C=C/c2cc3ccccc3o2)cc1 [MC-190047],0.625
3,CCCOc1ccc(C(=O)NNC(=S)NC(=O)c2ccco2)cc1 [ST5684191],0.375
4,CCOc1ccc(C(=O)NC(=S)NNC(=O)COc2cc(C)ccc2C(C)C)cc1 [ST5528173],1
5,CC(C)c1ccccc1OCC(=O)NNC(=S)NC(=O)/C=C/c1cccs1 [ST5523210],0.75
6,CC(C)c1ccc(OCC(=O)NNC(=S)NC(=O)c2cccnc2)cc1 [MC-190049],1
7,CC(Oc1ccc2ccccc2c1)C(=O)NNC(=S)NC(=O)c1ccco1 (centres unmarked) [ST5682782],0.25
8,COc1ccccc1C(=O)NC(=S)NNC(=O)COc1ccc(C(C)C)cc1 [MC-190033],0.3125
9,CC(C)c1ccc(OCC(=O)NNC(=S)NC(=O)c2cc3ccccc3s2)cc1 [MC-220001],0.56
10,CC(C)(C)c1ccc(OCC(=O)NNC(=S)NC(=O)c2ccco2)c(Br)c1 [ST5524527],0.625
11,Cc1ccoc1C(=O)NNC(=O)COc1ccc(C(C)C)cc1 [MC-190040],0.625
12,CC(C)c1ccc(OCC(=O)NNC(=S)NC(=O)/C=C/c2ccco2)cc1 [MC-190045],0.625
13,CC(C)c1ccc(OCC(=O)NNC(=S)NC(=O)c2c[nH]c3ccccc23)cc1 [MC-190055],0.56
14,CCCOc1ccccc1C(=O)NNC(=S)NC(=O)c1ccco1 [ST5528488],0.5
